Test results as given in PubChem BioAssay AID1918952 (Molecular Pharmacology Branch, DTP, NCI, 2023).
“And” between values parts separate entries of the source, which are not always exact repeats. Equal values may be shown once.

Test system: LG0703-F948-PDC complex spheroid viability
Assay: Anticancer human tumor LG0703-F948-PDC patient-derived lung adenocarcinoma cell line growth inhibition
Conditions: for viability, T/C: stronger effect = lower value
Summary of the method: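 Multicellular complex spheroids of tumor cells with human endothelial cells (HUVEC) and mesenchymal stem cells; the LSD1 inhibitor iadademstat was combined with standard-of-care or investigational agents. Top concentration at or near clinical Cmax, half-log dilutions; final DMSO ≤0.25%.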

[1] = curve of first compound, second compound 0.1 µM
[2] = curve of first compound, second compound 0.316 µM
[3] = curve of first compound, second compound 1 µM
[4] = curve of first compound, second compound 3.16 µM
[5] = curve of first compound, second compound 10 µM
[6] = second compound 0.1 µM, first compound 0.00316 µM
[7] = second compound 0.1 µM, first compound 0.01 µM
[8] = second compound 0.1 µM, first compound 0.0316 µM
[9] = second compound 0.1 µM, first compound 0.1 µM
[10] = second compound 0.316 µM, first compound 0.00316 µM
[11] = second compound 0.316 µM, first compound 0.01 µM
[12] = second compound 0.316 µM, first compound 0.0316 µM
[13] = second compound 0.316 µM, first compound 0.1 µM
[14] = second compound 1 µM, first compound 0.00316 µM
[15] = second compound 1 µM, first compound 0.01 µM
[16] = second compound 1 µM, first compound 0.0316 µM
[17] = second compound 1 µM, first compound 0.1 µM
[18] = second compound 3.16 µM, first compound 0.00316 µM
[19] = second compound 3.16 µM, first compound 0.01 µM
[20] = second compound 3.16 µM, first compound 0.0316 µM
[21] = second compound 3.16 µM, first compound 0.1 µM
[22] = second compound 10 µM, first compound 0.00316 µM
[23] = second compound 10 µM, first compound 0.01 µM
[24] = second compound 10 µM, first compound 0.0316 µM
[25] = second compound 10 µM, first compound 0.1 µM
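Note: spheroids exposed to agents for seven days before readout.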
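Throughout, for viability, T/C: 100% = DMSO vehicle control wells as normalization base.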

Q: How did the IC50 [1] turn out when `COc1cc(Nc2ncc3c(n2)-c2ccc(Cl)cc2C(c2c(F)cccc2OC)=NC3)ccc1C(=O)O` + NC1CC1c1ccc(-c2cccc(O)c2)cc1 was run?
A: The IC50 was 199 nM.

Q: What about the IC50 [2] of the same compound?
A: The IC50 was 177 nM.

Q: And the IC50 [3]?
A: Its IC50 is 198 nM.

Q: What about the IC50 [4] of the same compound?
A: Its IC50 is 188 nM.

Q: What about the IC50 [5] of the same compound?
A: Its IC50 is 181 nM.

Q: And the viability, T/C [6]?
A: The viability, T/C was 91.5%.

Q: And the viability, T/C [7]?
A: The viability, T/C was 85.6%.

Q: What about the viability, T/C [8] of the same compound?
A: The viability, T/C was 91.6%.

Q: And the viability, T/C [9]?
A: The viability, T/C was 76.1%.

Q: What about the viability, T/C (second compound 0.1 µM, first compound 0.316 µM) of the same compound?
A: The viability, T/C was 32.1%.

Q: And the viability, T/C (second compound 0.1 µM, first compound 1 µM)?
A: Its viability, T/C is 3.58%.

Q: And the viability, T/C [10]?
A: Its viability, T/C is 95.3%.

Q: And the viability, T/C [11]?
A: Its viability, T/C is 93.8%.

Q: What about the viability, T/C [12] of the same compound?
A: The viability, T/C was 80.8%.

Q: And the viability, T/C [13]?
A: Its viability, T/C is 67.6%.

Q: And the viability, T/C (second compound 0.316 µM, first compound 0.316 µM)?
A: Its viability, T/C is 33.5%.

Q: What about the viability, T/C (second compound 0.316 µM, first compound 1 µM) of the same compound?
A: Its viability, T/C is 3.78%.

Q: And the viability, T/C [14]?
A: Its viability, T/C is 106%.

Q: And the viability, T/C [15]?
A: Its viability, T/C is 100%.

Q: And the viability, T/C [16]?
A: Its viability, T/C is 85.6%.

Q: And the viability, T/C [17]?
A: Its viability, T/C is 70.5%.

Q: And the viability, T/C (second compound 1 µM, first compound 0.316 µM)?
A: The viability, T/C was 36.3%.

Q: What about the viability, T/C (second compound 1 µM, first compound 1 µM) of the same compound?
A: The viability, T/C was 3.36%.

Q: And the viability, T/C [18]?
A: Its viability, T/C is 95.5%.

Q: What about the viability, T/C [19] of the same compound?
A: The viability, T/C was 111%.

Q: And the viability, T/C [20]?
A: Its viability, T/C is 94.2%.

Q: What about the viability, T/C [21] of the same compound?
A: Its viability, T/C is 70.5%.

Q: What about the viability, T/C (second compound 3.16 µM, first compound 0.316 µM) of the same compound?
A: Its viability, T/C is 33.1%.

Q: And the viability, T/C (second compound 3.16 µM, first compound 1 µM)?
A: Its viability, T/C is 4.2%.

Q: What about the viability, T/C [22] of the same compound?
A: The viability, T/C was 113%.

Q: And the viability, T/C [23]?
A: Its viability, T/C is 97.6%.

Q: And the viability, T/C [24]?
A: Its viability, T/C is 94.1%.

Q: What about the viability, T/C [25] of the same compound?
A: The viability, T/C was 64.8%.

Q: And the viability, T/C (second compound 10 µM, first compound 0.316 µM)?
A: Its viability, T/C is 34.8%.

Q: What about the viability, T/C (second compound 10 µM, first compound 1 µM) of the same compound?
A: The viability, T/C was 6.35%.

Q: How did the viability, T/C (compound 0.00949 µM) turn out when `NS(=O)(=O)OCC1CC(n2ccc3c(NC4CCc5ccccc54)ncnc32)CC1O` (centres undefined) was run?
A: The viability, T/C was 103% and 93.6%.

Q: What about the viability, T/C (compound 0.03 µM) of the same compound?
A: The viability, T/C was 110% and 98.5%.

Q: What about the viability, T/C (compound 0.0949 µM) of the same compound?
A: Its viability, T/C is 102% and 92.3%.

Q: What about the viability, T/C (compound 0.3 µM) of the same compound?
A: Its viability, T/C is 74% and 62.3%.

Q: And the viability, T/C (compound 0.949 µM)?
A: The viability, T/C was 33.3% and 38.5%.

Q: What about the viability, T/C (compound 3 µM) of the same compound?
A: Its viability, T/C is 15.6% and 20.2%.

Q: What about the IC50 (curve of compound) of the same compound?
A: Its IC50 is 590 nM and 545 nM.

Q: `NC1CC1c1ccc(-c2cccc(O)c2)cc1` (centres undefined) was tested. Which viability, T/C (compound 0.1 µM) did it give?
A: The viability, T/C was 94.9% and 98.4%.

Q: And the viability, T/C (compound 3.16 µM)?
A: Its viability, T/C is 99.9% [middle of 24 runs].

Q: What about the IC50 (compound alone, run of 02/21/2022) of the same compound?
A: Its IC50 is over 10000 nM.

Q: Which viability, T/C (compound 0.000316 µM) does the source give for `CC(C)CC(NC(=O)C(Cc1ccccc1)NC(=O)c1cnccn1)B(O)O` (centres undefined) here?
A: Its viability, T/C is 11.1% and 6.84%.

Q: And the viability, T/C (compound 0.001 µM)?
A: Its viability, T/C is 1.41% and 0.31%.

Q: What about the viability, T/C (compound 0.00316 µM) of the same compound?
A: Its viability, T/C is 0.63% and 0.15%.

Q: What about the viability, T/C (compound 0.01 µM) of the same compound?
A: Its viability, T/C is 0.17%.

Q: What about the viability, T/C (compound 0.0316 µM) of the same compound?
A: The viability, T/C was 0.14% and 0.17%.

Q: And the viability, T/C (compound 0.1 µM)?
A: The viability, T/C was 0.21% and 0.29%.

Q: What about the IC50 (curve of compound) of the same compound?
A: Its IC50 is under 0.316 nM.

Q: `CC(C)c1c(-c2ccccc2)nc2c(C#N)c[nH]n2c1=O` was tested. Which viability, T/C (compound 0.0316 µM) did it give?
A: Its viability, T/C is 106% and 93%.

Q: What about the viability, T/C (compound 0.1 µM) of the same compound?
A: The viability, T/C was 91.8% and 84.6%.

Q: And the viability, T/C (compound 0.316 µM)?
A: The viability, T/C was 84.1% and 102%.

Q: And the viability, T/C (compound 1 µM)?
A: The viability, T/C was 100% and 86.9%.

Q: And the viability, T/C (compound 3.16 µM)?
A: Its viability, T/C is 89.7% and 91%.

Q: What about the viability, T/C (compound 10 µM) of the same compound?
A: The viability, T/C was 75.7% and 79.8%.

Q: And the IC50 (curve of compound)?
A: The IC50 was over 10000 nM.

Q: For `CC(C)CC(NC(=O)C(Cc1ccccc1)NC(=O)c1cnccn1)B(O)O` (centres undefined) + NC1CC1c1ccc(-c2cccc(O)c2)cc1, which IC50 [1] is on record?
A: Its IC50 is under 0.316 nM.

Q: And the IC50 [2]?
A: The IC50 was under 0.316 nM.

Q: What about the IC50 [3] of the same compound?
A: The IC50 was under 0.316 nM.

Q: And the IC50 [4]?
A: Its IC50 is under 0.316 nM.

Q: What about the IC50 [5] of the same compound?
A: Its IC50 is under 0.316 nM.

Q: And the viability, T/C (second compound 0.1 µM, first compound 0.000316 µM)?
A: The viability, T/C was 6.46%.

Q: What about the viability, T/C (second compound 0.1 µM, first compound 0.001 µM) of the same compound?
A: The viability, T/C was 0.12%.

Q: What about the viability, T/C [6] of the same compound?
A: Its viability, T/C is 0.04%.

Q: What about the viability, T/C [7] of the same compound?
A: Its viability, T/C is 0.06%.

Q: And the viability, T/C [8]?
A: The viability, T/C was 0.03%.

Q: What about the viability, T/C [9] of the same compound?
A: The viability, T/C was 1.07%.

Q: And the viability, T/C (second compound 0.316 µM, first compound 0.000316 µM)?
A: The viability, T/C was 7.13%.

Q: What about the viability, T/C (second compound 0.316 µM, first compound 0.001 µM) of the same compound?
A: Its viability, T/C is 0.36%.

Q: And the viability, T/C [10]?
A: Its viability, T/C is 0.54%.

Q: What about the viability, T/C [11] of the same compound?
A: Its viability, T/C is 0.02%.

Q: What about the viability, T/C [12] of the same compound?
A: The viability, T/C was 0.31%.

Q: And the viability, T/C [13]?
A: Its viability, T/C is 0.14%.

Q: What about the viability, T/C (second compound 1 µM, first compound 0.000316 µM) of the same compound?
A: The viability, T/C was 4.36%.

Q: What about the viability, T/C (second compound 1 µM, first compound 0.001 µM) of the same compound?
A: Its viability, T/C is 0.11%.

Q: And the viability, T/C [14]?
A: The viability, T/C was 0.85%.

Q: And the viability, T/C [15]?
A: The viability, T/C was 0.07%.

Q: What about the viability, T/C [16] of the same compound?
A: The viability, T/C was 0.95%.

Q: And the viability, T/C [17]?
A: The viability, T/C was 0.99%.

Q: And the viability, T/C (second compound 3.16 µM, first compound 0.000316 µM)?
A: Its viability, T/C is 4.22%.

Q: What about the viability, T/C (second compound 3.16 µM, first compound 0.001 µM) of the same compound?
A: Its viability, T/C is 0.74%.

Q: And the viability, T/C [18]?
A: The viability, T/C was 0.05%.

Q: What about the viability, T/C [19] of the same compound?
A: The viability, T/C was 0.39%.

Q: And the viability, T/C [20]?
A: The viability, T/C was 0.09%.

Q: And the viability, T/C [21]?
A: The viability, T/C was 0.14%.

Q: And the viability, T/C (second compound 10 µM, first compound 0.000316 µM)?
A: The viability, T/C was 1.18%.

Q: And the viability, T/C (second compound 10 µM, first compound 0.001 µM)?
A: The viability, T/C was 1.11%.

Q: And the viability, T/C [22]?
A: Its viability, T/C is 0.6%.

Q: And the viability, T/C [23]?
A: The viability, T/C was 1.43%.

Q: What about the viability, T/C [24] of the same compound?
A: Its viability, T/C is 0.9%.

Q: What about the viability, T/C [25] of the same compound?
A: The viability, T/C was 0.98%.
